# Results published in US11390900B2, “Antimicrobial cartridges and processes for multiplexed antimicrobial susceptibility testing” (priority 2018, dated 2022).
# Where two headings read alike, the source gives them in different places.
# Assays:
# E. faecalis 29212 = details: MIC range, cited from earlier work
# S. aureus 29213 = details: MIC range, cited from earlier work
# [1] = tested on: clinical isolate of S. aureus; test: Broth microdilution reference method MIC; format: cell-based; details: Staphylococcus aureus, read-out: MICs obtained from the broth microdilution reference method
# Description: The antibiotics shown are vancomycin, daptomycin, ceftaroline and levofloxacin, of which the MICs obtained from the broth microdilution reference method for this strain were 0.5, 0.25, 0.12, and 0.25 μg/ml, respectively. A clinical isolate of S. aureus was used. Data represents the TRF signal in RFUs. Graphs in the top row contain data from 384-well plates. Graphs in the bottom row contain data from 96-well plates.
# patient sample microbes [2] = test: AST MIC results for antimicrobial panel 1 (384-well panel from Master Plate vs 96-well panel); format: cell-based; details: for MICs obtained from panel made from Master Plate: antimicrobial panel 1, 384 well patient cartridge; for MICs obtained from 96-well Antibiotic Panel: antimicrobial panel 1, standard 96 well AST assay plate
# Text: (§1) An assay setup comprises preparation of patient (target) cartridge by dispensing antimicrobials were from the master cartridge or intermediate serial dilution cartridges into one or more 384 reservoir patient cartridge, each antimicrobial in about 7 serial dilutions in triplicate, and covering the dynamic range of each antimicrobial that is known to be effective and therefore should be reported. The dilution range included the expected minimum inhibitory concentration (MIC) for each antimicrobial. But most importantly, dilution ranges, that is, antimicrobial concentrations beyond the range known to be effective are included in the patient cartridge as per the present invention.
# (§2) The remaining reservoirs of the 384 well patient cartridge are utilized for setting up test controls: a no-antimicrobial control (negative control) was included for each antimicrobial compound; and a positive control was included for each antimicrobial set, where a microorganism that is not susceptible to the antimicrobial was added to the well. Each control set was also dispensed at least in duplicate per 384 well cartridge. Additional test controls may be included as deemed necessary by one of skill in the art. Equal amount of a patient sample was dispensed to each of the wells in the cartridge, except in the wells designated for no-sample control, if included. The patient cartridge was ready for determination of susceptibility of microbes from the patient sample to the twelve antimicrobials at the range of concentrations applied, simultaneously. Multiple such plates can be set up in parallel for testing samples from multiple patients, each patient sample per plate. An AST assay was performed on the prepared patient cartridges.
# (§3) First, three master plates are loaded by the user onto chilled plate holders (set to 4° C.). These consist of one Broad Spectrum, one Gram-Positive and one Gram-Negative antibiotic plate. Next the bulk reagents and pipette tips are loaded on tube rack. Master and bulk reagent pipette tips and sample dilution tray are reloaded every 12 samples. For every set of tests, up to four Patient Samples in tubes and up to four 384-well Target Plates (Patient plate) are loaded.
# (§4) Antibiotics are transferred from Broad Spectrum Master Plate to Target Plate(s). Antibiotics are “stamped” according to FIG. 10A-B. The inoculator tips should be placed back in the same position of the Broad Spectrum Tip Box for use on subsequent target plates, but should only be used for same antibiotics to avoid cross contamination.
# (§5) Antimicrobials are transferred from Gram-Positive OR Gram-Negative Master Plate to Target Plate(s) and the antibiotics are “stamped” according to FIG. 11A-B. The inoculator should place tips back in the same position of the correct tip box for use on subsequent target plates. Good care is taken such that any cross contamination is prevented.
# (§6) Using new tips from the Sample Tip Box, 50 μL of diluted patient sample are transferred into Target Plate according to Table Four, this is done with a “jet dispense” to avoid cross contamination. After the Patient Sample has been transferred to each well on the Target Plate, the tips should be disposed of to avoid cross contamination. The above steps are repeated for each additional Patient Sample and Target Plate.
# (§7) Shown in Table 6 and Table 7, MIC results for antimicrobial panels 1 and 2 respectively using a master cartridge format and a 384 well patient cartridge (column 3) agrees reliably with that run by standard 96 well AST assay plate (right hand column).
# patient sample microbes [3] = details: antimicrobial panel 1, MIC range; cited from earlier work
# patient sample microbes [4] = test: AST MIC results for antimicrobial panel 2 (384-well panel from Master Plate vs 96-well panel); format: cell-based; details: for MICs obtained from panel made from Master Plate: antimicrobial panel 2, 384 well patient cartridge; for MICs obtained from 96-well Antibiotic Panel: antimicrobial panel 2, standard 96 well AST assay plate
# Text: as §1, §2, §3, §4, §5, §6, §7
# patient sample microbes [5] = details: antimicrobial panel 2, MIC range; cited from earlier work
# E. coli 25922 = details: MIC range, E. coli 25922, Gram negative panel; cited from earlier work
# [6] = E. faecalis 29212, Gram negative panel
# [7] = S. aureus 29213, Gram negative panel
# [8] = S. aureus 29213, Gram positive panel
# [9] = E. faecalis 29212, Gram positive panel
molecule,measurement,setting,value
C[C@@H](O)[C@H]1C(=O)N2C(C(=O)O)=C(S[C@@H]3CN[C@H](C(=O)N(C)C)C3)[C@H](C)[C@H]12 [Meropenem],CLSI-Defined QC Range,E. faecalis 29212; [6],2 to 8 µg/mL
CO/N=C(\C(=O)N[C@@H]1C(=O)N2C(C(=O)O)=C(COC(C)=O)CS[C@H]12)c1csc(N)n1 [Cefotaxime],CLSI-Defined QC Range,S. aureus 29213; [7],1 to 4 µg/mL
CN[C@H](CC(C)C)C(=O)N[C@H]1C(=O)N[C@@H](CC(N)=O)C(=O)N[C@H]2C(=O)N[C@H]3C(=O)N[C@H](C(=O)N[C@H](C(=O)O)c4cc(O)cc(O)c4-c4cc3ccc4O)[C@H](O)c3ccc(c(Cl)c3)Oc3cc2cc(c3O[C@@H]2O[C@H](CO)[C@@H](O)[C@H](O)[C@H]2O[C@H]2C[C@](C)(N)[C@H](O)[C@H](C)O2)Oc2ccc(cc2Cl)[C@H]1O [Vancomycin],CLSI-Defined QC Range,S. aureus 29213; [8],0.5 to 2 µg/mL
same,MIC,[1],0.5 µg/mL
CO/N=C(\C(=O)N[C@@H]1C(=O)N2C(C(=O)[O-])=C(C[N+]3(C)CCCC3)CS[C@H]12)c1csc(N)n1 [Cefepime],CLSI-Defined QC Range,S. aureus 29213; [7],1 to 4 µg/mL
same,MICs obtained from panel made from Master Plate,patient sample microbes [2],≤ 0.25 µg/mL
same,MICs obtained from 96-well Antibiotic Panel,patient sample microbes [2],≤ 0.03 µg/mL
same,Quality Control Range,patient sample microbes [3],0.015-0.12
CCO/N=C(\C(=O)N[C@@H]1C(=O)N2C(C(=O)[O-])=C(Sc3nc(-c4cc[n+](C)cc4)cs3)CS[C@H]12)c1nsc(N)n1 [Ceftaroline],MICs obtained from panel made from Master Plate,patient sample microbes [4],0.5 µg/mL
same,MICs obtained from 96-well Antibiotic Panel,patient sample microbes [4],0.25 µg/mL
same,MIC,[1]; clinical isolate of S. aureus,0.12 µg/mL
Cn1nnc(-c2ccc(-c3ccc(N4C[C@H](CO)OC4=O)cc3F)cn2)n1 [Tedizolid],MICs obtained from panel made from Master Plate,patient sample microbes [4],0.25 µg/mL
same,MICs obtained from 96-well Antibiotic Panel,patient sample microbes [4],0.5 µg/mL
same,Quality Control Range,patient sample microbes [5],0.25-1
CCCCCCCCCC(=O)N[C@@H](Cc1c[nH]c2ccccc12)C(=O)N[C@H](CC(N)=O)C(=O)N[C@@H](CC(=O)O)C(=O)N[C@@H]1C(=O)NCC(=O)N[C@@H](CCCN)C(=O)N[C@@H](CC(=O)O)C(=O)N[C@H](C)C(=O)N[C@@H](CC(=O)O)C(=O)NCC(=O)N[C@H](CO)C(=O)N[C@@H]([C@H](C)CC(=O)O)C(=O)N[C@@H](CC(=O)c2ccccc2N)C(=O)O[C@@H]1C [Daptomycin],CLSI-Defined QC Range,E. faecalis 29212; [9],1 to 4 µg/mL
same,MIC,[1]; clinical isolate of S. aureus,0.25 µg/mL
Penicillin,CLSI-Defined QC Range,S. aureus 29213; [8],0.25 to 2 µg/mL
CN(C)[C@@H]1C(O)=C(C(N)=O)C(=O)[C@@]2(O)C(O)=C3C(=O)c4c(O)c(NC(=O)CN5CCCC5)cc(F)c4C[C@H]3C[C@@H]12 [Eravacycline],CLSI-Defined QC Range,E. faecalis 29212; [9],0.016 to 0.06 µg/mL
same,CLSI-Defined QC Range,E. coli 25922,0.03 to 0.12 µg/mL
NC[C@H]1O[C@H](O[C@H]2[C@H](O)[C@@H](O[C@H]3O[C@H](CO)[C@@H](O)[C@H](N)[C@H]3O)[C@H](N)C[C@@H]2N)[C@H](N)C[C@@H]1O [Tobramycin],CLSI-Defined QC Range,E. faecalis 29212; [6],8 to 32 µg/mL
same,MICs obtained from panel made from Master Plate,patient sample microbes [2],0.5 µg/mL
same,MICs obtained from 96-well Antibiotic Panel,patient sample microbes [2],1 µg/mL
same,Quality Control Range,patient sample microbes [3],0.25-1
NCC[C@H](O)C(=O)N[C@@H]1C[C@H](N)[C@@H](O[C@H]2O[C@H](CN)[C@@H](O)[C@H](O)[C@H]2O)[C@H](O)[C@H]1O[C@H]1O[C@H](CO)[C@@H](O)[C@H](N)[C@H]1O [Amikacin],CLSI-Defined QC Range,S. aureus 29213; [7],1 to 4 µg/mL
same,MICs obtained from panel made from Master Plate,patient sample microbes [2],4 µg/mL
same,MICs obtained from 96-well Antibiotic Panel,patient sample microbes [2],4 µg/mL
same,Quality Control Range,patient sample microbes [3],0.5-4
CC[C@H]1OC(=O)[C@H](C)[C@@H](O[C@H]2C[C@@](C)(OC)[C@@H](O)[C@H](C)O2)[C@H](C)[C@@H](O[C@@H]2O[C@H](C)C[C@H](N(C)C)[C@H]2O)[C@](C)(O)C[C@@H](C)CN(C)[C@H](C)[C@@H](O)[C@]1(C)O [Azithromycin],CLSI-Defined QC Range,S. aureus 29213; [8],0.5 to 2 µg/mL
Cc1onc(-c2ccccc2)c1C(=O)N[C@@H]1C(=O)N2[C@@H]1SC(C)(C)[C@@H]2C(=O)O [Oxacillin],MICs obtained from panel made from Master Plate,patient sample microbes [4],0.5 µg/mL
same,MICs obtained from 96-well Antibiotic Panel,patient sample microbes [4],0.5 µg/mL
same,CLSI-Defined QC Range,S. aureus 29213; [8],0.12 to 0.5 µg/mL
same,Quality Control Range,patient sample microbes [5],0.12-0.5
C[C@@H](O)[C@H]1C(=O)N2C(C(=O)O)=C(S[C@@H]3CN[C@H](C(=O)Nc4cccc(C(=O)O)c4)C3)[C@H](C)[C@H]12 [Ertapenem],CLSI-Defined QC Range,S. aureus 29213; [7],0.06 to 0.25 µg/mL
CO/N=C(\C(=O)N[C@@H]1C(=O)N2C(C(=O)O)=C(COC(N)=O)CS[C@H]12)c1ccco1 [Cefuroxime],CLSI-Defined QC Range,E. coli 25922,2 to 8 µg/mL
CO/N=C(\C(=O)N[C@@H]1C(=O)N2C(C(=O)O)=C(CSc3nc(=O)c(=O)[nH]n3C)CS[C@H]12)c1csc(N)n1 [Ceftriaxone],MICs obtained from panel made from Master Plate,patient sample microbes [4],2 µg/mL
same,MICs obtained from 96-well Antibiotic Panel,patient sample microbes [4],4 µg/mL
same,CLSI-Defined QC Range,S. aureus 29213; [7],1 to 8 µg/mL
same,MICs obtained from panel made from Master Plate,patient sample microbes [2],≤ 0.125 µg/mL
same,MICs obtained from 96-well Antibiotic Panel,patient sample microbes [2],≤ 0.12 µg/mL
same,Quality Control Range,patient sample microbes [3],0.03-0.12
same,Quality Control Range,patient sample microbes [5],1-8
CO[C@H]1/C=C/O[C@@]2(C)Oc3c(C)c(O)c4c(O)c(c(/C=N/N5CCN(C)CC5)c(O)c4c3C2=O)NC(=O)/C(C)=C\C=C\[C@H](C)[C@H](O)[C@@H](C)[C@@H](O)[C@@H](C)[C@H](OC(C)=O)[C@@H]1C [Rifampin],MICs obtained from panel made from Master Plate,patient sample microbes [4],≤ 0.25 µg/mL
same,MICs obtained from 96-well Antibiotic Panel,patient sample microbes [4],0.004 µg/mL
same,CLSI-Defined QC Range,E. faecalis 29212; [9],0.5 to 4 µg/mL
same,Quality Control Range,patient sample microbes [5],0.004-0.015
CC(=O)NC[C@H]1CN(c2ccc(N3CCOCC3)c(F)c2)C(=O)O1 [Linezolid],MICs obtained from panel made from Master Plate,patient sample microbes [4],2 µg/mL
same,MICs obtained from 96-well Antibiotic Panel,patient sample microbes [4],2 µg/mL
same,CLSI-Defined QC Range,S. aureus 29213; [8],1 to 4 µg/mL
same,Quality Control Range,patient sample microbes [5],1-4
CC[C@H]1OC(=O)[C@H](C)[C@@H](O[C@H]2C[C@@](C)(OC)[C@@H](O)[C@H](C)O2)[C@H](C)[C@@H](O[C@@H]2O[C@H](C)C[C@H](N(C)C)[C@H]2O)[C@](C)(O)C[C@@H](C)C(=O)[C@H](C)[C@@H](O)[C@]1(C)O [Erythromycin],CLSI-Defined QC Range,E. faecalis 29212; [9],1 to 4 µg/mL
C[C@H]1COc2c(N3CCN(C)CC3)c(F)cc3c(=O)c(C(=O)O)cn1c23 [Levofloxacin],MICs obtained from panel made from Master Plate,patient sample microbes [4],≤ 0.25 µg/mL
same,MICs obtained from 96-well Antibiotic Panel,patient sample microbes [4],0.25 µg/mL
same,MICs obtained from panel made from Master Plate,patient sample microbes [2],≤ 0.25 µg/mL
same,MICs obtained from 96-well Antibiotic Panel,patient sample microbes [2],≤ 0.06 µg/mL
same,MIC,[1]; clinical isolate of S. aureus,0.25 µg/mL
Nc1nc(-n2cc(C(=O)O)c(=O)c3cc(F)c(N4CC(O)C4)c(Cl)c32)c(F)cc1F [Delafloxacin],CLSI-Defined QC Range,E. faecalis 29212; [9],0.016 to 0.12 µg/mL
COc1cc(Cc2cnc(N)nc2N)cc(OC)c1OC [Trimethoprim],CLSI-Defined QC Range,S. aureus 29213; [8],1 to 4 µg/mL
Cc1nnc(SCC2=C(C(=O)O)N3C(=O)[C@@H](NC(=O)Cn4cnnn4)[C@H]3SC2)s1 [Cefazolin],CLSI-Defined QC Range,E. coli 25922,1 to 4 µg/mL
